Measurements as given in paper PMC12745320 (2025).

Assays:
[1] = system: PTL-1 (DNA, aptamer) GACGACGGCCAAGCTAACGGCTGCTAAGCATGTGGAGTCGTC; experiment: ThT fluorescence; details: 150 mM NaCl, 5 mM MgCl2 (main text; supplement: 2.0 mM MgCl2); 10 mM MES (supplement: 20 mM), pH 6.0; 1.0 μM aptamer, 2.0 μM ThT; described as non-specific binding
[2] = system: PTL-1 (DNA, aptamer) GACGACGGCCAAGCTAACGGCTGCTAAGCATGTGGAGTCGTC; experiment: ThT fluorescence displacement; details: 150 mM NaCl, 5 mM MgCl2 (main text; supplement: 2.0 mM MgCl2); 10 mM MES (supplement: 20 mM), pH 6.0; ThT displaced; tested at 200 μM
[3] = system: PTL-1c (DNA, aptamer) GACGACGGCCAAGAATCCGGCTGCTAAGCATGTGGAGTCGTC; experiment: ITC; details: 150 mM NaCl, 5 mM MgCl2 (main text; supplement: 2.0 mM MgCl2); 10 mM MES (supplement: 20 mM), pH 6.0, 25 °C; typically 1.0 mM PTL in syringe
[4] = system: PTL-1a (DNA, aptamer) GACGACTCCAAGAATCCGGCTGCTAAGCATGTGGAGTCGTC; experiment: ITC; details: 150 mM NaCl, 5 mM MgCl2 (main text; supplement: 2.0 mM MgCl2); 10 mM MES (supplement: 20 mM), pH 6.0, 25 °C; typically 1.0 mM PTL in syringe
[5] = system: PTL-1 (DNA, aptamer) GACGACGGCCAAGCTAACGGCTGCTAAGCATGTGGAGTCGTC; experiment: ThT fluorescence displacement titration; details: 150 mM NaCl, 5 mM MgCl2 (main text; supplement: 2.0 mM MgCl2), 10 mM MES (supplement: 20 mM), pH 6.0, ThT 2.0 μM displaced, 1.0 μM aptamer
[6] = system: PTL-1 (DNA, aptamer) GACGACGGCCAAGCTAACGGCTGCTAAGCATGTGGAGTCGTC; experiment: ITC; details: 150 mM NaCl, 5 mM MgCl2 (main text; supplement: 2.0 mM MgCl2); 10 mM MES (supplement: 20 mM), pH 6.0, 25 °C; 20 μM aptamer
[7] = system: PTL-1b (DNA, aptamer) GACGACGGCGAAGCTAACGGCTGCTAAGCATGTCGAGTCGTC; experiment: ITC; details: 150 mM NaCl, 5 mM MgCl2 (main text; supplement: 2.0 mM MgCl2); 10 mM MES (supplement: 20 mM), pH 6.0, 25 °C; typically 1.0 mM PTL in syringe

| SMILES | binding [2] | other results |
| --- | --- | --- |
| Cc1ccc2c(c1)sc(-c1ccc(N(C)C)cc1)[n+]2C |  | binding [1]: yes |
| COc1cc(NS(=O)(=O)c2ccc(N)cc2)nc(OC)n1 | no |  |
| Cc1ncc([N+](=O)[O-])n1CCO | no |  |
| Nc1ccc(S(=O)(=O)Nc2cnc3ccccc3n2)cc1 | no |  |
| O=C1C=C2C(=CCOC2O)O1 (stereo not shown) |  | binding [3]: no; binding [4]: no; apparent Kd [5]: 18.4 µM; Kd [6]: 12.5 µM; binding [7]: no |
| CS(=O)(=O)c1ccc([C@@H](O)[C@@H](CO)NC(=O)C(Cl)Cl)cc1 | no |  |
| CC1(C)S[C@@H]2[C@H](NC(=O)[C@H](N)c3ccccc3)C(=O)N2[C@H]1C(=O)O | no |  |
| CC1(C)S[C@@H]2[C@H](NC(=O)Cc3ccccc3)C(=O)N2[C@H]1C(=O)O | no |  |
| C=C1[C@@H](O)[C@@H]2O[C@]3(CC[C@H](/C=C/[C@@H](C)[C@@H]4CC(C)=C[C@@]5(O[C@H](C[C@@](C)(O)C(=O)O)CC[C@H]5O)O4)O3)CC[C@H]2O[C@@H]1[C@@H](O)C[C@H](C)[C@H]1O[C@@]2(CCCCO2)CC[C@H]1C | no |  |
| NC(=O)N1c2ccccc2C=Cc2ccccc21 | no |  |
| C[C@@H]1C[C@H]2[C@@H]3CCC4=CC(=O)C=C[C@]4(C)[C@@]3(F)[C@@H](O)C[C@]2(C)[C@@]1(O)C(=O)CO | no |  |
| CCCC[C@@H](C)[C@@H](OC(=O)C[C@@H](CC(=O)O)C(=O)O)[C@H](C[C@@H](C)C[C@H](O)CCCC[C@@H](O)C[C@H](O)[C@H](C)N)OC(=O)C[C@@H](CC(=O)O)C(=O)O | no |  |
| O=C(N[C@H](CO)[C@H](O)c1ccc([N+](=O)[O-])cc1)C(Cl)Cl | no |  |
| C[C@H]1CCCC(=O)CCC/C=C/c2cc(O)cc(O)c2C(=O)O1 | no |  |
| C[C@@H]1Cc2c(Cl)cc(C(=O)N[C@@H](Cc3ccccc3)C(=O)O)c(O)c2C(=O)O1 | no |  |
